Measurements taken from US20160338351A1, “(S)-ABSCISIC ACID DERIVATIVES FOR ENHANCED GRAPE COLORATION” (Valent BioSciences Corporation, priority 2015, published 2016).
Where a name gives a salt, the structure may show the parent alone.

Tests used:
Type in all cases: in vivo, Vitis vinifera
Crimson Seedless grapes = assay: Trial, Example 2: visual color rating of grape clusters on a 1 to 8 scale; parameters: key to Color Ratings: 1 = little/no red color, 8 = deep/dark red color; details: for Color Ratings: applied day 0 and day 11, 1 to 8 grading scale; for potency in promoting red color development compared with another compound: Crimson Seedless grapes; for red color development in comparison with the untreated control: six-week evaluation period
Description: Another trial was conducted in California on Crimson Seedless grapes to compare the efficacy of S-ABA, 3′-methyl-(S)-ABA and 3′-propargyl-(S)-ABA in promoting coloration. All three compounds were formulated as aqueous solutions of the corresponding potassium salt to the desired concentrations, with the final pHs being between 6.5 and 7.2. Individual Crimson Seedless grape clusters were selected and tagged, with 20 tagged clusters per treatment. The solutions were applied as cluster-directed sprays using a trigger sprayer at 15 to 20 milliliters per cluster which ensured good coverage of the grapes. The treatments were applied on day 0 and day 11 of the trial. Periodically during the trial, the grape clusters were evaluated for color development by visual ratings over a six-week period and the coloration was graded on a 1 to 8 grading scale, where a rating of 1 has very little or no red color and a rating of 8 has a deep or dark red color.

[1] = system: Crimson Seedless grape clusters; assay: Field study, Example 1: anthocyanin content of berries harvested about four weeks after treatment; details: for Total Anthocyanin Content: berries harvested about four weeks after treatment
Description: (§1) A field study was conducted in California to compare the efficacy of S-ABA to 3′-methyl-(S)-ABA in promoting red grape coloration. S-ABA and 3′-methyl-(S)-ABA were formulated as aqueous solutions of the corresponding potassium salt to the desired concentrations with the final pHs being between 6.5 and 7.2. Individual Crimson Seedless grape clusters were selected and tagged, with 20 tagged clusters per treatment. The treatments were applied as cluster-directed sprays using a trigger sprayer at 15 to 20 mL per cluster to ensured good coverage of the grapes. Application of 15 to 20 milliliters per cluster simulates application of about 109 gallons per acre directed at the approximately 40 clusters per vine in a vineyard with 518 vines per acre. Based on these estimates, Applicant determined the approximate grams per acre. The equation is as follows: 20 ml/cluster×40 cluster/vine=800 ml/vine×518 vine/acre=(414,400 ml/acre)/(1000 ml/liter)=414 liters/acre. An estimation of grams per acre was made by multiplying the mg per cluster with 20,720 clusters/acre (40 clusters/vine×518 vines/acre=20,720 clusters/acre).
(§2) Periodically after the treatments, the grape clusters were evaluated for color development by visual ratings over a six-week period. The coloration was graded on a 1 to 8 grading scale, where a rating of 1 has very little or no red color and a rating of 8 has a deep or dark red color. The percentages of berries that reached marketable red coloration for each cluster were averaged and recorded for each treatment. Additionally, representative berries from each treatment group were harvested about four weeks after treatment and analyzed for anthocyanin content.

[2] = system: Crimson Seedless grape clusters; assay: Field study, Example 1: visual rating of red grape coloration, % of berries with marketable color; details: for activity relative to S-ABA for enhancing grape coloration: from % marketable color data, 40 ppm vs 400 ppm S-ABA
Description: as §1, §2

[3] = 4 ppm, 0.06-0.08 mg/cluster, 1.2-1.6 g/acre, 3 DAT
[4] = 4 ppm, 0.06-0.08 mg/cluster, 1.2-1.6 g/acre, 10 DAT
[5] = 4 ppm, 0.06-0.08 mg/cluster, 1.2-1.6 g/acre, 14 DAT
[6] = 4 ppm, 0.06-0.08 mg/cluster, 1.2-1.6 g/acre, 21 DAT
[7] = 4 ppm, 0.06-0.08 mg/cluster, 1.2-1.6 g/acre, 31 DAT
[8] = 4 ppm, 0.06-0.08 mg/cluster, 1.2-1.6 g/acre, 41 DAT
[9] = 40 ppm, 0.6-0.8 mg/cluster, 12-16 g/acre, 3 DAT
[10] = 40 ppm, 0.6-0.8 mg/cluster, 12-16 g/acre, 10 DAT
[11] = 40 ppm, 0.6-0.8 mg/cluster, 12-16 g/acre, 14 DAT
[12] = 40 ppm, 0.6-0.8 mg/cluster, 12-16 g/acre, 21 DAT
[13] = 40 ppm, 0.6-0.8 mg/cluster, 12-16 g/acre, 31 DAT
[14] = 40 ppm, 0.6-0.8 mg/cluster, 12-16 g/acre, 41 DAT (end of six-week evaluation)

C#CCC1=C(C)[C@](O)(/C=C/C(C)=C\C(=O)O)C(C)(C)CC1=O [3′-propargyl-(S)-ABA, K^+ salt, (2Z,4E)-5-((S)-1-hydroxy-2,6,6-trimethyl-4-oxo-3-(prop-2-yn-1-yl)cyclohex-2-en-1-yl)-3-methylpenta-2,4-dienoic acid]
Color Ratings (Crimson Seedless grapes; [3]): 1.1 | Color Ratings (Crimson Seedless grapes; [4]): 1.3 | Color Ratings (Crimson Seedless grapes; [5]): 1.5 | Color Ratings (Crimson Seedless grapes; [6]): 1.9 | Color Ratings (Crimson Seedless grapes; [7]): 2.4 | Color Ratings (Crimson Seedless grapes; [8]): 2.4 | Color Ratings (Crimson Seedless grapes; 20 ppm, 6-8 g/acre, 3 DAT): 1.1 | Color Ratings (Crimson Seedless grapes; 20 ppm, 6-8 g/acre, 10 DAT): 1.5 | Color Ratings (Crimson Seedless grapes; 20 ppm, 6-8 g/acre, 14 DAT): 1.8 | Color Ratings (Crimson Seedless grapes; 20 ppm, 6-8 g/acre, 21 DAT): 2.2 | Color Ratings (Crimson Seedless grapes; 20 ppm, 6-8 g/acre, 31 DAT): 2.9 | Color Ratings (Crimson Seedless grapes; 20 ppm, 6-8 g/acre, 41 DAT): 3.1 | Color Ratings (Crimson Seedless grapes; [9]): 1.1 | Color Ratings (Crimson Seedless grapes; [10]): 1.5 | Color Ratings (Crimson Seedless grapes; [11]): 1.8 | Color Ratings (Crimson Seedless grapes; [12]): 2.6 | Color Ratings (Crimson Seedless grapes; [13]): 3.1 | Color Ratings (Crimson Seedless grapes; [14]): 3.3 | potency in promoting red color development compared with another compound (Crimson Seedless grapes): less potent than 3′-methyl-(S)-ABA | red color development in comparison with the untreated control (Crimson Seedless grapes): accelerated coloration

CC1=C(C)[C@](O)(/C=C/C(C)=C\C(=O)O)C(C)(C)CC1=O [3′-methyl-(S)-ABA, K^+ salt, (2Z,4E)-5-((S)-1-hydroxy-2,3,6,6-tetramethyl-4-oxocyclohex-2-en-1-yl)-3-methylpenta-2,4-dienoic acid]
Total Anthocyanin Content ([1]; 0.3-0.4 mg/cluster (20 ppm, 15-20 mL)): 68 mg/L | Total Anthocyanin Content ([1]; 0.6-0.8 mg/cluster (40 ppm, 15-20 mL)): 78 mg/L | Total Anthocyanin Content ([1]; 3-4 mg/cluster (200 ppm, 15-20 mL)): 181 mg/L | Total Anthocyanin Content ([1]; 6-8 mg/cluster (400 ppm, 15-20 mL)): 247 mg/L | activity relative to S-ABA in promoting Crimson Seedless grape coloration ([1]; from anthocyanin analysis of Table 2): approximately 10 times | calculated relative potency versus S-ABA ([1]; rate of S-ABA needed to achieve the same effect): 8.4 times | Color Ratings (Crimson Seedless grapes; [3]): 1 | Color Ratings (Crimson Seedless grapes; [4]): 1.6 | Color Ratings (Crimson Seedless grapes; [5]): 1.9 | Color Ratings (Crimson Seedless grapes; [6]): 2.4 | Color Ratings (Crimson Seedless grapes; [7]): 2.7 | Color Ratings (Crimson Seedless grapes; [8]): 2.8 | Color Ratings (Crimson Seedless grapes; 20 ppm, 6-8 g/acre, 3 DAT): 1.3 | Color Ratings (Crimson Seedless grapes; 20 ppm, 6-8 g/acre, 10 DAT): 1.7 | Color Ratings (Crimson Seedless grapes; 20 ppm, 6-8 g/acre, 14 DAT): 2.3 | Color Ratings (Crimson Seedless grapes; 20 ppm, 6-8 g/acre, 21 DAT): 2.9 | Color Ratings (Crimson Seedless grapes; 20 ppm, 6-8 g/acre, 31 DAT): 3.5 | Color Ratings (Crimson Seedless grapes; 20 ppm, 6-8 g/acre, 41 DAT): 3.5 | Color Ratings (Crimson Seedless grapes; [9]): 1.1 | Color Ratings (Crimson Seedless grapes; [10]): 1.3 | Color Ratings (Crimson Seedless grapes; [11]): 2.7 | Color Ratings (Crimson Seedless grapes; [12]): 3.9 | Color Ratings (Crimson Seedless grapes; [13]): 4.7 | Color Ratings (Crimson Seedless grapes; [14]): 5.5 | potency in promoting red color development compared with another compound (Crimson Seedless grapes): more effective than S-ABA | red color development in comparison with the untreated control (Crimson Seedless grapes): dose-dependent accelerated red color development | coloration effect compared with 6 to 8 mg per cluster (400 ppm) of S-ABA ([2]; 0.6 to 0.8 mg per cluster (40 ppm, 15 to 20 mL)): even more efficacious | Coloring Ratings, % of the berries with marketable color ([2]; 20 ppm, 0.3-0.4 mg/cluster, 6-8 grams/acre, 7 DAT): 34% | Coloring Ratings, % of the berries with marketable color ([2]; 20 ppm, 0.3-0.4 mg/cluster, 6-8 grams/acre, 14 DAT): 67% | Coloring Ratings, % of the berries with marketable color ([2]; 20 ppm, 0.3-0.4 mg/cluster, 6-8 grams/acre, 27 DAT): 79% | Coloring Ratings, % of the berries with marketable color ([2]; 20 ppm, 0.3-0.4 mg/cluster, 6-8 grams/acre, 33 DAT): 85% | Coloring Ratings, % of the berries with marketable color ([2]; 20 ppm, 0.3-0.4 mg/cluster, 6-8 grams/acre, 43 DAT): 89% | Coloring Ratings, % of the berries with marketable color ([2]; 40 ppm, 0.6-0.8 mg/cluster, 12-16 grams/acre, 7 DAT): 52% | Coloring Ratings, % of the berries with marketable color ([2]; 40 ppm, 0.6-0.8 mg/cluster, 12-16 grams/acre, 14 DAT): 83% | Coloring Ratings, % of the berries with marketable color ([2]; 40 ppm, 0.6-0.8 mg/cluster, 12-16 grams/acre, 27 DAT): 92% | Coloring Ratings, % of the berries with marketable color ([2]; 40 ppm, 0.6-0.8 mg/cluster, 12-16 grams/acre, 33 DAT): 95% | Coloring Ratings, % of the berries with marketable color ([2]; 40 ppm, 0.6-0.8 mg/cluster, 12-16 grams/acre, 43 DAT): 97% | Coloring Ratings, % of the berries with marketable color ([2]; 200 ppm, 3-4 mg/cluster, 60-80 grams/acre, 7 DAT): 72% | Coloring Ratings, % of the berries with marketable color ([2]; 200 ppm, 3-4 mg/cluster, 60-80 grams/acre, 14 DAT): 89% | Coloring Ratings, % of the berries with marketable color ([2]; 200 ppm, 3-4 mg/cluster, 60-80 grams/acre, 27 DAT): 95% | Coloring Ratings, % of the berries with marketable color ([2]; 200 ppm, 3-4 mg/cluster, 60-80 grams/acre, 33 DAT): 95% | Coloring Ratings, % of the berries with marketable color ([2]; 200 ppm, 3-4 mg/cluster, 60-80 grams/acre, 43 DAT): 100% | Coloring Ratings, % of the berries with marketable color ([2]; 400 ppm, 6-8 mg/cluster, 120-160 grams/acre, 7 DAT): 76% | Coloring Ratings, % of the berries with marketable color ([2]; 400 ppm, 6-8 mg/cluster, 120-160 grams/acre, 14 DAT): 98% | Coloring Ratings, % of the berries with marketable color ([2]; 400 ppm, 6-8 mg/cluster, 120-160 grams/acre, 27 DAT): 99% | Coloring Ratings, % of the berries with marketable color ([2]; 400 ppm, 6-8 mg/cluster, 120-160 grams/acre, 33 DAT): 99% | Coloring Ratings, % of the berries with marketable color ([2]; 400 ppm, 6-8 mg/cluster, 120-160 grams/acre, 43 DAT): 99% | marketable coloration ([2]; 400 ppm, 6 to 8 mg per cluster, 15 to 20 mL, in two weeks): ~90% | activity relative to S-ABA for enhancing grape coloration [2]: approximately 10 times | activity relative to S-ABA for enhancing grape coloration ([2]; listed as 3′-methyl-(S)-abscisic acid): ten times as effective as S-ABA
